Structures can show the parent of a compound that is named as a salt.
What was measured:
[1] = test system: pupil; assay: Pupil dilation measured with Neuroptics pupillometer after α-2 agonist pre-treatment and/or phenylephrine; type: in vivo, human; settings: for Pupil size, Treated eye / Surgical Work area, Treated eye / Pupil size, Non-treated eye / Surgical Work area, Non-treated eye: photopic conditions (1258.925 lux) after dilation with phenylephrine 10%
Method: Dilation medication used was Phenylephrine hydrochloride 10% (Akorn, Inc). Pupillometer used was a Neuroptics DP-2000 Binocular Pupillometer).
Dilation using phenylephrine hydrochloride 10% was conducted in both eyes of the test subject to use as a control against the other compounds being tested.
After this, dilation using phenylephrine hydrochloride 2.5% or phenylephrine hydrochloride 10% was conducted to investigate the effects of the compound on pupil dilation.
Apracionidine 0.5% was administered in the right eye of the test subject three (3) times a day for 4 days. After this, dilation using phenylephrine hydrochloride 10% was conducted to investigate the effects of the compound on pupil dilation.
After this, dilation using phenylephrine hydrochloride 10% was conducted to investigate the effects of the compound on pupil dilation.
A washout period of multiple months was undertaken in between each experiment.
Pupil measurements were obtained using a Neuroptics pupillometer. Parameters were as follows: Scotopic conditions for 1 second, followed by photopic conditions for 4 seconds (1258.925 lux), followed by scotopic conditions for 10 seconds. This allowed for investigation of scotopic pupil size, photopic pupil size, and scotopic pupil size recovery after the light stimulus concluded.
The pupils of the subject's pretreated right eye and untreated control left eye were then measured under both scotopic and photopic conditions for baseline measurements (FIG. 6A). Photopic conditions consisted of a 4 second window where a light was shining in both eyes simultaneously. […]
The experiment was repeated at a higher dosage wherein the subject was administered a second ophthalmic formulation containing 10% phenylephrine to both eyes. 30 minutes after instillation of 10% phenylephrine, the pupils of the subject were then measured under both scotopic and photopic conditions (FIG. 6C). […] Because the area of a circle is dependent on the radius squared (area of a circle=πr^2), the increase in area that is created from a increasing the pupil dilation size is not linear.
The results were then compared.

[2] = test system: α receptors (α2:α1); settings: affinity ratio; cited from earlier work
[3] = phenylephrine hydrochloride 10% both eyes, no pre-treatment (FIG. 5B)
[4] = after pre-treatment of right eye only, 3 times a day for 4 days, before phenylephrine
[5] = after pre-treatment of right eye only, 3 times a day for 4 days, before phenylephrine, left eye not treated
[6] = dilation pre and post treatment with α 2 agonist: treated eye vs control measurements of same eye
[7] = non-treated eye dilation compared to treated eye dilation
[8] = right eye pre-treated 3 times a day for 4 days, then phenylephrine 2.5% both eyes (FIG. 6B)
[9] = right eye pre-treated 3 times a day for 4 days, then phenylephrine 2.5% both eyes (FIG. 6B), left eye not pre-treated
[10] = right eye pre-treated 3 times a day for 4 days, then phenylephrine 10% both eyes
[11] = right eye pre-treated 3 times a day for 4 days, then phenylephrine 10% both eyes, left eye not pre-treated

## CNC[C@H](O)c1cccc(O)c1 [Phenylephrine hydrochloride 10%, phenylephrine]
[1]; [3]
  CH LPupil Ave: 58%
  CH LStim Ave: 57%
  CH Left: 58%
  CH RPupil Ave: 56%
  CH RStim Ave: 57%
  CH Right: 56%
  CLAT LPupil Ave: 0.24 s
  CLAT LStim Ave: 0.22 s
  CLAT Left: 0.24 s
  CLAT RPupil Ave: 0.20 s
  CLAT RStim Ave: 0.22 s
  CLAT Right: 0.20 s
  DELTA LStim Ave: 4.63 mm
  DELTA Left: 4.65 mm
  DELTA RPupil Ave: 4.62 mm
  DELTA RStim Ave: 4.63 mm
  DV LStim Ave: 1.43 mm/s
  DV Left: 1.40 mm/s
  DV RPupil Ave: 1.45 mm/s
  DV RStim Ave: 1.43 mm/s
  DV Right: 1.45 mm/s
  MCV LStim Ave: 4.62 mm/s
  MCV Left: 4.78 mm/s
  MCV RPupil Ave: 4.46 mm/s
  MCV RStim Ave: 4.62 mm/s
  Max LStim Ave: 8.11 mm
  Max Left: 8.01 mm
  Max RStim Ave: 8.11 mm
  Max Right: 8.21 mm
  Min LStim Ave: 3.48 mm
  Min Left: 3.36 mm
  Min RPupil Ave: 3.59 mm
  Min RStim Ave: 3.48 mm
  Min Right: 3.59 mm
[1]
  Pupil size, Treated eye: 3.59 mm
  Surgical Work area, Treated eye: 10.12 mm^2
[1]; eye without pre-treatment
  Pupil size, Non-treated eye: 3.36 mm
  Surgical Work area, Non-treated eye: 8.862 mm^2

## Brc1c(NC2=NCCN2)ccc2nccnc12 [Brimonidine, brimonidine]
[1]; 30 minutes after 2.5% phenylephrine (FIG. 6B)
  dilation speed of pretreated eye vs control eye on return to scotopic conditions: more rapidly
[1]; 30 minutes after 10% phenylephrine (FIG. 6C)
  dilation speed of pretreated eye vs control eye upon removal of the light: more rapidly
[1]; 30 minutes after 10% phenylephrine both eyes (FIG. 6C)
  average increase in dilation size in the pretreated eye compared to the control eye: 36%
[1]; after 4 days pre-treatment, before phenylephrine (FIG. 6A)
  dilation speed of pretreated eye upon return to scotopic conditions: much more slowly
[1]; after dilation with phenylephrine hydrochloride 10%
  increase of surgical work area compared to the pre-treatment control dilation amount in the same eye: approximately 103%
[1]; [4]
  CH LStim Ave: 69%
  CH RPupil Ave: 67%
  CH RStim Ave: 69%
  CH Right: 67%
  CLAT LStim Ave: 0.17 s
  CLAT RPupil Ave: 0.18 s
  CLAT RStim Ave: 0.17 s
  CLAT Right: 0.18 s
  DELTA LStim Ave: 4.70 mm
  DELTA RPupil Ave: 4.21 mm
  DELTA RStim Ave: 4.70 mm
  DV LStim Ave: 1.02 mm/s
  DV RPupil Ave: 1.00 mm/s
  DV RStim Ave: 1.02 mm/s
  DV Right: 1.00 mm/s
  MCV LStim Ave: 6.57 mm/s
  MCV RPupil Ave: 6.76 mm/s
  MCV RStim Ave: 6.57 mm/s
  Max LStim Ave: 6.86 mm
  Max RStim Ave: 6.86 mm
  Max Right: 6.27 mm
  Min LStim Ave: 2.16 mm
  Min RPupil Ave: 2.06 mm
  Min RStim Ave: 2.16 mm
  Min Right: 2.06 mm
[1]; [5]
  CH LPupil Ave: 70%
  CH Left: 70%
  CLAT LPupil Ave: 0.17 s
  CLAT Left: 0.17 s
  DELTA Left: 5.21 mm
  DV Left: 1.05 mm/s
  MCV Left: 6.38 mm/s
  Max Left: 7.46 mm
  Min Left: 2.25 mm
[1]; [6]
  Pupil size change (%): +42.62%
  Surgical work area change (%): +103.4%
[1]; [7]
  Pupil size change (%): +35.81%
  Surgical work area (%): +84.44%
[1]
  Pupil size, Treated eye: 5.12 mm
  Surgical Work area, Treated eye: 20.58 mm^2
[1]; eye without pre-treatment
  Pupil size, Non-treated eye: 3.77 mm
  Surgical Work area, Non-treated eye: 11.16 mm^2
[1]; photopic conditions, 30 minutes after 2.5% phenylephrine (FIG. 6B)
  dilation of pretreated eye vs control eye: more dilated
[1]; photopic conditions, 30 minutes after 10% phenylephrine (FIG. 6C)
  dilation of pretreated eye vs control eye: much more dilated
[1]; photopic conditions, after 10% phenylephrine (FIG. 6C)
  pupil area, pre-treated eye: 20.59 mm^2
[1]; photopic conditions, after 10% phenylephrine (FIG. 6C), eye without pre-treatment
  pupil area, control eye: 11.16 mm^2
[1]; pre-treated vs control eye, photopic conditions, after 10% phenylephrine
  increase in surgical workspace: ~85%
[1]; [8]
  CH LStim Ave: 64%
  CH RPupil Ave: 61%
  CH RStim Ave: 64%
  CH Right: 61%
  CLAT LStim Ave: 0.19 s
  CLAT RPupil Ave: 0.19 s
  CLAT RStim Ave: 0.19 s
  CLAT Right: 0.19 s
  DELTA LStim Ave: 4.98 mm
  DELTA RPupil Ave: 4.70 mm
  DELTA RStim Ave: 4.98 mm
  DV LStim Ave: 1.36 mm/s
  DV RPupil Ave: 1.39 mm/s
  DV RStim Ave: 1.36 mm/s
  DV Right: 1.39 mm/s
  MCV LStim Ave: 6.06 mm/s
  MCV RPupil Ave: 5.40 mm/s
  MCV RStim Ave: 6.06 mm/s
  Max LStim Ave: 7.73 mm
  Max RStim Ave: 7.73 mm
  Max Right: 7.69 mm
  Min LStim Ave: 2.75 mm
  Min RPupil Ave: 2.99 mm
  Min RStim Ave: 2.75 mm
  Min Right: 2.99 mm
[1]; [9]
  CH LPupil Ave: 68%
  CH Left: 68%
  CLAT LPupil Ave: 0.19 s
  CLAT Left: 0.19 s
  DELTA Left: 5.26 mm
  DV Left: 1.33 mm/s
  MCV Left: 6.71 mm/s
  Max Left: 7.77 mm
  Min Left: 2.51 mm
[1]; [10]
  CH LStim Ave: 52%
  CH RPupil Ave: 46%
  CH RStim Ave: 52%
  CH Right: 46%
  CLAT LStim Ave: 0.22 s
  CLAT RPupil Ave: 0.20 s
  CLAT RStim Ave: 0.22 s
  CLAT Right: 0.20 s
  DELTA LStim Ave: 4.74 mm
  DELTA RPupil Ave: 4.28 mm
  DELTA RStim Ave: 4.74 mm
  DV LStim Ave: 1.06 mm/s
  DV RPupil Ave: 1.09 mm/s
  DV RStim Ave: 1.06 mm/s
  DV Right: 1.09 mm/s
  MCV LStim Ave: 4.22 mm/s
  MCV RPupil Ave: 4.20 mm/s
  MCV RStim Ave: 4.22 mm/s
  Max LStim Ave: 9.18 mm
  Max RStim Ave: 9.18 mm
  Max Right: 9.40 mm
  Min LStim Ave: 4.44 mm
  Min RPupil Ave: 5.12 mm
  Min RStim Ave: 4.44 mm
  Min Right: 5.12 mm
[1]; [11]
  CH LPupil Ave: 58%
  CH Left: 58%
  CLAT LPupil Ave: 0.24 s
  CLAT Left: 0.24 s
  DELTA Left: 5.19 mm
  DV Left: 1.04 mm/s
  MCV Left: 4.25 mm/s
  Max Left: 8.96 mm
  Min Left: 3.77 mm
[1]; scotopic and photopic conditions, after 4 days pre-treatment, before phenylephrine (FIG. 6A)
  dilation of pretreated eye vs control eye: less dilated
[1]; scotopic conditions, 30 minutes after 2.5% phenylephrine (FIG. 6B)
  dilation of pretreated eye vs control eye: equally dilated
[1]; scotopic conditions, 30 minutes after 10% phenylephrine (FIG. 6C)
  dilation of pretreated eye vs control eye: more dilated
[2]
  α2:α1 affinity: 976
